According to US20140045807A2, “THE USE OF 3-METHOXY-PREGNENOLONE FOR THE PREPARATION OF A DRUG FOR TREATING A TRAUMATIC BRAIN INJURY” (priority 2004, published 2014):

Experiments:
MAP2 = assay: Western blot of MAP2 in cortex and hippocampus after CCI; format: in vivo, rat; conditions: 20 mg/kg, first injection 2 h post-trauma, day 35, injured and non-injured cortex and hippocampus
Procedure: FIG. 19: MAP-2 expression, 35 days after TBI, in the left-uninjured and right-injured hemispheres (A: cortex and B: hippocampus) of CCI-injured animals, receiving either vehicle (D0) or MAP4343 (D1: 10 mg/kg and D2: 20 mg/kg), 2 h after injury.
Samples were analyzed by Western-blot at day 35 post-trauma (D35) to evaluate the effects of MAP4343 on: MAP2 (the target of MAP4343 and a modulator of microtubule function), the post-synaptic markers PSD95 and spinophilin, the pre-synaptic marker synaptophysin, and the axonal growth/integrity marker GAP43.
Western blot was performed on cortex and hippocampus of TBI-injured animals receiving the first injection of MAP4343 (at 10 mg/kg or 20 mg/kg) or vehicle (sesame oil) 2 h after injury.
The expression level of various neuronal brain markers of plasticity was measured at day 35 post-trauma by western-blots in the cortex and hippocampus of left uninjured and right injured cerebral hemispheres of CCI traumatized animals receiving either vehicle (sesame oil, CCI-D0) or 3-methoxy-PREG (MAP4343) at 10 mg/kg (CCI-D1) or 20 mg/kg (CCI-D2), with first MAP4343 injection 2 h post-trauma.

PC12 cells = assay: Neuritic growth / sprouting in PC12 cells with NGF; format: cell-based, rat; conditions: increasing concentrations, 2, 5 and 8 days of culture (FIG. 3)
Procedure: Each molecule was tested in three culture wells. Measurements were taken for 200 cells per well using Scion Image software.
Neurite (neurite) length was measured for 200 cells per well after 2, 5, and 8 days of culture.
Stimulation of neuritic sprouting is conducted on PC12 cells differentiated in the presence of NGF (10 ng/ml) and the steroid being tested (30 μM) for 3 days. For each condition, the average length of the longest 200 neurites in each cell is measured simultaneously for 3 cultures.

[1] = In vivo toxicity, daily injection for one month; parameters: species or system rat; conditions: rats, daily injection for one month of 48 mg/kg
[2] = target: T1, human progesterone receptor(PR) (Homo sapiens, UniProt P06401); assay: Test of progesterone receptor agonist activity (luciferase transactivation, HEK293T); format: cell-based; conditions: increasing amounts, 24 hours
T1 construct: expressed in transfected cells; host or cells: HEK293T
T1 sequence (P06401 1-933): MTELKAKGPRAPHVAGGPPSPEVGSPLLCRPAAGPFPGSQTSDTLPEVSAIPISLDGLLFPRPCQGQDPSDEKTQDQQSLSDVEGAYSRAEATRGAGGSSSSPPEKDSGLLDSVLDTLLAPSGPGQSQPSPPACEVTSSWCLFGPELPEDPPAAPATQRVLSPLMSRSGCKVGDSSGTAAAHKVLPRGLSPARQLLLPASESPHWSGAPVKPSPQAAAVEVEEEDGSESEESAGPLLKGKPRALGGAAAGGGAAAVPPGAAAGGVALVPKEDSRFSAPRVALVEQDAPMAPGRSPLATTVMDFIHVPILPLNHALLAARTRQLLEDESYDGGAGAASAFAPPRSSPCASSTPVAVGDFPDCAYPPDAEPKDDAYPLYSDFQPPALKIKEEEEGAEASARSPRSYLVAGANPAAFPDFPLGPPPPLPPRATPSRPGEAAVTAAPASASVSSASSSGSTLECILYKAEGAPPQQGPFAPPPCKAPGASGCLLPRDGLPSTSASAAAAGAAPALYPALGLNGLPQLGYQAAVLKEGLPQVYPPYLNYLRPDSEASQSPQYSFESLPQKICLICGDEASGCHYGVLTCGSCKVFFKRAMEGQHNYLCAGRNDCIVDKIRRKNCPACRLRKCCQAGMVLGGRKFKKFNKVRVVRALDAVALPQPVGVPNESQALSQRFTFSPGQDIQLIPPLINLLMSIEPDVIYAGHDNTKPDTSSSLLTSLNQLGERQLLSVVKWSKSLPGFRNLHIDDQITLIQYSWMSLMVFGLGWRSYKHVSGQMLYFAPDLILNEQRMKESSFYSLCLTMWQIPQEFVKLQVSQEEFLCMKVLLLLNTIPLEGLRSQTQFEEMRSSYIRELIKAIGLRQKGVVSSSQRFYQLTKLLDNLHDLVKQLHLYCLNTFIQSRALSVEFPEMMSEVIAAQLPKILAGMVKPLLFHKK
Procedure: The main experimental setting used is the following: HEK293T cells were transiently transfected, using calcium phosphate precipitation technology, with expression vectors pSG5hPR (which permits expression of human progesterone receptor(PR)), pFC31-luc (contains the luciferase gene under the control of the MMTV promoter, which is in turn activated by binding of a progestin to progesterone receptor) and pcbetagal (which permits expression of betagalactosidase), and cultured during 24 hours with increasing amounts of various compositions: • 1. […] Test of progesterone receptor […] activity: transfected cells were cultured with progesterone (1 nM) and increasing amounts of RU486 (a well-known progesterone receptor antagonist) or 3-methoxy-pregnenolone. • With this setting, a compound with progesterone receptor antagonist activity competes with progesterone for the occupation of progesterone receptor and results in a progressive loss of transactivation activity when the amount of this compound is increased compared to progesterone.

CO[C@H]1CC[C@@]2(C)C(=CC[C@H]3[C@@H]4CC[C@H](C(C)=O)[C@@]4(C)CC[C@@H]32)C1 [3-methoxy-PREG, 3β-methoxy-pregna-5-ene-20-one]
MAP-2 expression (MAP2): strong increase
increase in the length of neurites formed in the presence of NGF (PC12 cells): ≤ 500%
average weight and behavior [1]: affected neither average weight nor behavior
progesterone receptor agonist (transactivation) activity [2]: does not have progesterone receptor agonist activity
